This assay relates to BDF1 mice, P388 leukemia ip, median survival T/C. In words: NCI In Vivo Anticancer Drug Screen. Data for tumor model P388 Leukemia (intraperitoneal) in B6D2F1 (BDF1) mice. The conditions noted are these: endpoint: median survival time, higher = longer survival. The essentials:
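Steps: implant the tumour, treat one group with compound and another with vehicle, record survival, then divide treated by control.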

[1] abbreviates: dose: 100.0 mg/kg/injection, schedule: Q04DX003 (ip), vehicle: saline with Tween-80.
Where [2] appears, read: dose: 200.0 mg/kg/injection, schedule: Q04DX003 (ip), vehicle: saline with Tween-80.
Where [3] appears, read: dose: 400.0 mg/kg/injection, schedule: Q04DX003 (ip), vehicle: saline with Tween-80.
[4] abbreviates: dose: 100.0 mg/kg/injection, schedule: Q01DX009 (ip), vehicle: Klucel (hydroxypropylcellulose) (HPC).
Setting [5] is: dose: 100.0 mg/kg/injection, schedule: Q04DX003 (ip), vehicle: Klucel (hydroxypropylcellulose) (HPC).
Where [6] appears, read: dose: 200.0 mg/kg/injection, schedule: Q01DX009 (ip), vehicle: Klucel (hydroxypropylcellulose) (HPC).
The mark [7] stands for this setting: dose: 200.0 mg/kg/injection, schedule: Q04DX003 (ip), vehicle: Klucel (hydroxypropylcellulose) (HPC).
Where [8] appears, read: dose: 400.0 mg/kg/injection, schedule: Q01DX009 (ip), vehicle: Klucel (hydroxypropylcellulose) (HPC).
The mark [9] stands for this setting: dose: 400.0 mg/kg/injection, schedule: Q04DX003 (ip), vehicle: Klucel (hydroxypropylcellulose) (HPC).
[10] abbreviates: dose: 100.0 mg/kg/injection, schedule: Q01DX001 (ip), vehicle: saline with Tween-80.
Where [11] appears, read: dose: 200.0 mg/kg/injection, schedule: Q01DX001 (ip), vehicle: saline with Tween-80.

“And” between values parts separate entries of the source, which are not always exact repeats. Equal entries are not always repeated. Toxic doses and inconclusive results are not listed.

The results in this text go back to PubChem BioAssay AID328 (DTP/NCI, 2004).

`O=C1C(Cl)=C(N2CC2)C(=O)C(Cl)=C1N1CC1`: the T/C by setting is: (dose: 1.25 mg/kg/injection, schedule: Q01DX009 (ip), vehicle: saline with Tween-80) 172 % of control; (dose: 2.5 mg/kg/injection, schedule: Q01DX009 (ip), vehicle: Klucel (hydroxypropylcellulose) (HPC)) 150 % of control; (dose: 2.5 mg/kg/injection, schedule: Q01DX009 (ip), vehicle: saline with Tween-80) 169 % of control; (dose: 5.0 mg/kg/injection, schedule: Q01DX009 (ip), vehicle: Klucel (hydroxypropylcellulose) (HPC)) 157 % of control and 165 % of control; (dose: 5.0 mg/kg/injection, schedule: Q01DX009 (ip), vehicle: saline with Tween-80) 172 % of control; (dose: 5.0 mg/kg/injection, schedule: Q01DX009 (ip), vehicle: saline) 155 % of control and 165 % of control. For the same compound, the T/C (dose: 10.0 mg/kg/injection, schedule: Q01DX009 (ip), vehicle: Klucel (hydroxypropylcellulose) (HPC)) was 123 % of control; the T/C (dose: 10.0 mg/kg/injection, schedule: Q01DX009 (ip), vehicle: saline with Tween-80) was 169 % of control; the T/C (dose: 10.0 mg/kg/injection, schedule: Q01DX009 (ip), vehicle: saline) was 163 % of control and 200 % of control.

As to `NC(=O)C1(N2CCCCC2)CCN(CCCC(=O)c2ccc(F)cc2)CC1`, the T/C by setting is: (dose: 37.5 mg/kg/injection, schedule: Q01DX009 (ip), vehicle: Klucel (hydroxypropylcellulose) (HPC)) 107 % of control; (dose: 150.0 mg/kg/injection, schedule: Q01DX009 (ip), vehicle: Klucel (hydroxypropylcellulose) (HPC)) 117 % of control.

As to `CCNC(=O)Nc1ccc(N(CC)CC)cc1`, the T/C under setting [1] is 100 % of control, the T/C under setting [2] is 100 % of control and the T/C under setting [3] was 100 % of control.

For the compound `Nc1ccc(NS(=O)(=O)c2ccccc2)nc1`, the T/C by setting is: under setting [4], 100 % of control; under setting [5], 100 % of control; under setting [6], 100 % of control; under setting [7], 100 % of control; under setting [8], 95 % of control; under setting [9], 100 % of control.

Take `O=C(/C=C/c1ccncc1)c1ccccc1`: the T/C reads like this: under setting [10], 122 % of control; under setting [11], 113 % of control.

Take `CC(C)(C)c1cc(Br)c(N)c(C(O)(C(F)(F)F)C(F)(F)F)c1`: the T/C is, setting by setting: under setting [10], 105 % of control; under setting [11], 109 % of control; (dose: 400.0 mg/kg/injection, schedule: Q01DX001 (ip), vehicle: saline with Tween-80) 111 % of control.

For the compound `CC1(CCBr)NC(=O)NC1=O` (stereo not drawn), the T/C reads like this: under setting [4], 110 % of control; under setting [5], 100 % of control; under setting [6], 105 % of control; under setting [7], 115 % of control; under setting [8], 105 % of control; under setting [9], 100 % of control.

On to `[O-]c1on[n+](C2CCCCC2)c1-c1ccccc1`, for which the T/C was 105 % of control (dose: 50.0 mg/kg/injection, schedule: Q04DX003 (ip), vehicle: Klucel (hydroxypropylcellulose) (HPC)); 109 % of control (dose: 100.0 mg/kg/injection, schedule: Q01DX001 (ip), vehicle: Klucel (hydroxypropylcellulose) (HPC)); 92 % of control (dose: 100.0 mg/kg/injection, schedule: Q01DX009 (ip), vehicle: saline with Tween-80); 100 % of control under setting [5]; 104 % of control (dose: 200.0 mg/kg/injection, schedule: Q01DX001 (ip), vehicle: Klucel (hydroxypropylcellulose) (HPC)); 92 % of control (dose: 200.0 mg/kg/injection, schedule: Q01DX009 (ip), vehicle: saline with Tween-80). The T/C is 100 % of control under setting [7] and 100 % of control (dose: 400.0 mg/kg/injection, schedule: Q01DX001 (ip), vehicle: Klucel (hydroxypropylcellulose) (HPC)).

With `CCOn1nnc2cc(Cl)ccc21`, the T/C was 113 % of control under setting [1], 113 % of control under setting [2] and 106 % of control under setting [3].

For the compound `COc1cc(N=Nc2ccc(O)c3ncccc23)c(OC)cc1N=Nc1ccc([N+](=O)[O-])cc1`, the T/C (dose: 50.0 mg/kg/injection, schedule: Q01DX005 (ip), vehicle: saline with Tween-80) is 101 % of control and the T/C (dose: 100.0 mg/kg/injection, schedule: Q01DX005 (ip), vehicle: saline with Tween-80) was 111 % of control.

For the compound `CC12CCC3(CC1CCC(OC(=O)c1ccccc1)C2)OCCO3` (stereo not drawn), the T/C (dose: 22.0 mg/kg/injection, schedule: Q01DX009 (ip), vehicle: other) was 109 % of control; the T/C (dose: 33.0 mg/kg/injection, schedule: Q01DX009 (ip), vehicle: other) was 109 % of control; the T/C (dose: 44.0 mg/kg/injection, schedule: Q04DX003 (ip), vehicle: other) is 100 % of control; the T/C (dose: 50.0 mg/kg/injection, schedule: Q01DX009 (ip), vehicle: other) was 109 % of control; the T/C (dose: 66.0 mg/kg/injection, schedule: Q04DX003 (ip), vehicle: other) is 109 % of control; the T/C (dose: 75.0 mg/kg/injection, schedule: Q01DX009 (ip), vehicle: other) is 109 % of control. In addition, the T/C was 100 % of control (dose: 100.0 mg/kg/injection, schedule: Q04DX003 (ip), vehicle: other); 100 % of control (dose: 150.0 mg/kg/injection, schedule: Q04DX003 (ip), vehicle: other); 109 % of control (dose: 200.0 mg/kg/injection, schedule: Q01DX009 (ip), vehicle: other); 109 % of control (dose: 200.0 mg/kg/injection, schedule: Q04DX003 (ip), vehicle: other); 104 % of control (dose: 400.0 mg/kg/injection, schedule: Q01DX009 (ip), vehicle: other); 109 % of control (dose: 400.0 mg/kg/injection, schedule: Q04DX003 (ip), vehicle: other).

As for `NC(=O)n1nccc1N`, the T/C reads like this: (dose: 100.0 mg/kg/injection, schedule: Q01DX009 (ip), vehicle: saline) 100 % of control; (dose: 100.0 mg/kg/injection, schedule: Q04DX003 (ip), vehicle: saline) 105 % of control; (dose: 200.0 mg/kg/injection, schedule: Q01DX009 (ip), vehicle: saline) 100 % of control; (dose: 200.0 mg/kg/injection, schedule: Q04DX003 (ip), vehicle: saline) 115 % of control; (dose: 400.0 mg/kg/injection, schedule: Q01DX009 (ip), vehicle: saline) 90 % of control; (dose: 400.0 mg/kg/injection, schedule: Q04DX003 (ip), vehicle: saline) 110 % of control.

In the case of `O=C(CO)c1ccccc1`, the T/C is, setting by setting: (dose: 6.25 mg/kg/injection, schedule: Q01DX009 (ip), vehicle: saline with Tween-80) 93 % of control; (dose: 12.5 mg/kg/injection, schedule: Q01DX009 (ip), vehicle: saline with Tween-80) 95 % of control; (dose: 25.0 mg/kg/injection, schedule: Q01DX009 (ip), vehicle: saline with Tween-80) 93 % of control; (dose: 50.0 mg/kg/injection, schedule: Q01DX009 (ip), vehicle: saline with Tween-80) 104 % of control.

Turning to `C/C=C/C(OCC)OCC`, the T/C runs as follows: (dose: 6.25 mg/kg/injection, schedule: Q04DX003 (ip), vehicle: water) 95 % of control; (dose: 12.5 mg/kg/injection, schedule: Q01DX009 (ip), vehicle: water) 105 % of control; (dose: 12.5 mg/kg/injection, schedule: Q04DX003 (ip), vehicle: water) 91 % of control; (dose: 25.0 mg/kg/injection, schedule: Q01DX009 (ip), vehicle: water) 91 % of control; (dose: 25.0 mg/kg/injection, schedule: Q04DX003 (ip), vehicle: water) 92 % of control; (dose: 50.0 mg/kg/injection, schedule: Q01DX009 (ip), vehicle: water) 100 % of control. Further, the T/C reads like this: (dose: 50.0 mg/kg/injection, schedule: Q04DX003 (ip), vehicle: water) 105 % of control; (dose: 100.0 mg/kg/injection, schedule: Q01DX009 (ip), vehicle: water) 98 % of control; (dose: 100.0 mg/kg/injection, schedule: Q04DX003 (ip), vehicle: water) 113 % of control; (dose: 200.0 mg/kg/injection, schedule: Q01DX009 (ip), vehicle: water) 109 % of control; (dose: 200.0 mg/kg/injection, schedule: Q04DX003 (ip), vehicle: water) 111 % of control and 113 % of control; (dose: 300.0 mg/kg/injection, schedule: Q04DX003 (ip), vehicle: water) 111 % of control.
